Assay results: ChEMBL document CHEMBL1156960, “First synthesis of separable isomeric testosterone dimers showing differential activities on prostate cancer cells” (Bioorg Med Chem Lett, 2010)

Tests used:
LNCaP = test: Cytotoxicity against human androgen receptor positive LNCAP cells after 72 hrs by MTT assay; type: functional, cell-based
PC-3 = test: Cytotoxicity against human androgen receptor negative PC3 cells after 72 hrs by MTT assay; type: functional, cell-based; conditions: PC-3, 72 h

Row | SMILES | IC50 (LNCaP) | IC50 (PC-3)
1 | C[C@]12CC[C@H]3[C@@H]([C@@H](C/C=C\C[C@H]4CC5=CC(=O)CC[C@]5(C)[C@H]5CC[C@]6(C)[C@@H](O)CC[C@H]6[C@H]45)CC4=CC(=O)CC[C@@]43C)[C@@H]1CC[C@@H]2O | 30.3 µM | 24.7 µM
2 | C[C@]12CC[C@H]3[C@@H]([C@@H](C/C=C/C[C@H]4CC5=CC(=O)CC[C@]5(C)[C@H]5CC[C@]6(C)[C@@H](O)CC[C@H]6[C@H]45)CC4=CC(=O)CC[C@@]43C)[C@@H]1CC[C@@H]2O |  | 35.7 µM
3 | CC(=O)O[C@]1(C(C)=O)CC[C@H]2[C@@H]3C=C(Cl)C4=CC(=O)[C@@H]5C[C@@H]5[C@]4(C)[C@H]3CC[C@@]21C [CYPROTERONE ACETATE] | 43 µM | 32.3 µM
